Here are results for one compound from patent EP0974351A2, “Medicament for preventing and treating gastrointestinal damage” (JOUVEINAL, priority 1998, dated 2000).

One experiment relates to Audiogenic Convulsions. As to the kind of experiment: Audiogenic seizures after ethanol withdrawal in mice. The class given is in vivo, Male albino mice of the outbred TO strain. The note with it: for Percentage of Group Showing Clonic Convulsions: Ethanol Diet, 8 hours from ethanol withdrawal, ethanol/saline 80. As to the method:
Male albino mice of the outbred TO strain (Bantin and Kingman, UK) were used in all studies. The weight ranged from 25 to 35 g, with no more than a 5 g range in any single experiment. The mice were housed, eight per cage, at 21°C ± 1°C, with 55 ± 10% relative humidity, and a 12-hour light/dark cycle with the light phase between 09:00 to 21:00. All mice received ad libitum access to tap water and standard laboratory chow (RM-1, Special Diet Services, UK) until their use in experiments or until their diet was replaced with a liquid diet.
Ethanol was administered in a liquid diet schedule. All mice received control diet for an initial 2-day period. Ethanol treated mice then received a diet containing 3.5% (v/v) ethanol/water for 2 days, followed by a diet containing 7% ethanol for a further 5 days. The average intake was 22 to 30 g/kg/day. Control groups were pair-fed a control diet, balanced isocalorifically to match the ethanol containing diet. There were no differences in the weights of the ethanol-treated and control mice at the end of the treatment periods. When mice were withdrawn from the ethanol (between 07:00 AM and 09:00 AM), they were provided with tap water until their use in experiments.
Gabapentin was dissolved in saline, the solution being made freshly each testing day. Intraperitoneal (i.p.) injections of either gabapentin, 10 mL/kg, or saline, were given immediately on withdrawal from the ethanol treatment, in the studies on the handling responses and 2 hours prior to measurement of audiogenic seizures. In the experiments using the elevated plus maze, gabapentin or saline was injected i.p. at 8 hours after the removal of the ethanol diet, and the mice placed on the plus maze 60 minutes after the injections. In the studies on motor co-ordination (ataxia) and on locomotor activity, gabapentin or saline was injected to ethanol-naive chow fed mice immediately before testing. Measurements were then made for 60 minutes for the ataxia study, and for 30 minutes in the case of the locomotor activity.
At 8 and 12 hours from ethanol withdrawal, the susceptibility to sound-induced convulsions was measured in separate groups of ten mice. Mice were tested individually in a sound-proof perspex box 30 × 30 × 30 cm containing an electric door-bell. The bell was rung for 2 minutes or until the first signs of convulsions. The number of mice which responded by wild-running and clonic convulsions was counted. The mice were humanely killed as soon as a full convulsion was seen.
The results of the handling response ratings were compared by nonparametric two-way analysis of variance, designed for repeat measures on the same animal. The results of the area under the curve calculations were compared by the Mann-Whitney U-test. The convulsion incidence was analyzed by Fisher's exact probability test. The measurements from the elevated plus maze were subjected to one-way analysis of variance, followed by a Bonuferroni multiple comparison test, comparing all groups to the control group which received saline injections, and also both ethanol treated groups which received gabapentin to the ethanol treated group which received saline. The ataxia measurements were analyzed by the Mann-Whitney U-test and the locomotor activity by Student's t-test.

Experiment [1] concerns gastric lesions caused by indomethacin. Put plainly: Indomethacin-induced gastric lesions in rats (gabapentin pretreatment). The experiment is classed as in vivo, Male Sprague-Dawley rats. The note with it: for gastric lesion (square area of visible lesions): indomethacin alone 42.6 ± 5.2. The protocol:
Gabapentin was evaluated in animals to determine its ability to prevent gastric lesions otherwise caused by indomethacin.
(§1) Male Sprague-Dawley rats weighing 240 to 250 g were fasted for 24 hours and allowed free access to water prior to experiment. All test drugs were given intragastrically. Rats were pretreated with different doses of gabapentin at doses of 40 and 60 mg. Thirty minutes later indomethacin (25 mg/kg) was administered. Another group of rats received 10 mg of gabapentin twice, 3 hours apart, followed by indomethacin administration. Three hours after indomethacin treatment, the rats were killed and gastric lesions were assessed. The severity of the lesions were determined by the measurement of the square area (mm^2) of visible lesions.

Experiment [2] relates to ethanol-induced gastric lesions. Put plainly: Ethanol-induced gastric lesions in rats. The class given is in vivo. The settings on record: ethanol alone 41.9 ± 3.7. As to the method: as §1
To determine the effects of gabapentin on ethanol-induced gastric lesions, rats were pretreated with 1 mL of 70% ethanol, followed by gabapentin at a dose of 40 and 60 mg, respectively. Another group of rats were pretreated by 20 mg of gabapentin given twice, 3 hours apart, followed by ethanol administration. Thirty minutes later, all rats were killed and gastric lesions were assessed.

For `NCC1(CC(=O)O)CCCCC1` [Gabapentin, 1-(aminomethyl)-cyclohexane acetic acid], the “Percentage of Group Showing Clonic Convulsions” value is 92% in the experiment on Audiogenic Convulsions (Gabapentin 5 mg/kg i.p. 2 hours before test), 70% with Audiogenic Convulsions (Gabapentin 20 mg/kg i.p.), 40% with Audiogenic Convulsions (Gabapentin 50 mg/kg i.p.) and 30 p <0.01 c.f Ethanol/Saline group % with Audiogenic Convulsions (Gabapentin 100 mg/kg i.p.). The “convulsion incidence after the audiogenic stimulus” value in the experiment on Audiogenic Convulsions (any of the doses tested, 12 hours from the end of the ethanol treatment (data not shown)) is “No effect”. The “gastric lesion (square area of visible lesions)” value is 4.2 ± 0.39 mm^2 in experiment [1] (gabapentin 10 mg twice, 3 hours apart, followed by indomethacin 25 mg/kg); 22.3 ± 2.8 mm^2 in experiment [1] (gabapentin 40 mg intragastrically 30 min before indomethacin 25 mg/kg, assessed 3 hours after indomethacin, mean ± SEM); 16.5 ± 2.2 mm^2 in experiment [1] (gabapentin 60 mg/kg (so in the source) intragastrically 30 min before indomethacin 25 mg/kg). In addition, in experiment [1] (gabapentin pretreatment before indomethacin 25 mg/kg), the gastric bleeding result is on record as “dramatically reduced”. The area of injury in experiment [2] (40 mg gabapentin, 1 mL of 70% ethanol) was 24.4 ± 3.5 mm^2; in experiment [2] (60 mg gabapentin, 1 mL of 70% ethanol), 18.7 ± 2.2 mm^2; in experiment [2] (2 doses of 20 mg gabapentin, 3 hours apart, then 1 mL of 70% ethanol, assessed 30 min later) it was 2.1 ± 0.3 mm^2.
